The text below walks through data of US9144238B2, “Active compound combinations” (BAYER INTELLECTUAL PROPERTY GMBH, priority 2011, dated 2015).

Where two headings read alike, the source gives them in different places.

One series deals with Venturia inaequalis. Put plainly: Venturia test (apples)/preventive. The format is in vivo. The note with it: Venturia inaequalis, 240 h, read-out: Efficacy in % found; for pest or weed control at 25 ppm: Table 10, 25 ppm a.i.; for pest or weed control at 50 ppm: Table 11, 50 ppm a.i. As to the method:
(§1) To produce a suitable preparation of active compound, 1 part by weight of active compound is mixed with the stated amounts of solvent and emulsifier, and the concentrate is diluted with water to the desired concentration.
To test for preventive activity, young plants are sprayed with the preparation of active compound at the stated rate of application. After the spray coating has dried on, the plants are inoculated with an aqueous conidia suspension of the causal agent of apple scab (Venturia inaequalis) and then remain for 1 day in an incubation cabinet at approximately 20° C. and a relative atmospheric humidity of 100%.
The plants are then placed in a greenhouse at approximately 21° C. and a relative atmospheric humidity of approximately 90%.
(§2) The test is evaluated 10 days after the inoculation. 0% means an efficacy which corresponds to that of the untreated control, while an efficacy of 100% means that no disease is observed.

In a further series the test system is Sphaerotheca fuliginea. Put plainly: Sphaerotheca test (cucumbers)/preventive. The format is in vivo. As to the method: as §1
To test for preventive activity, young plants are sprayed with the preparation of active compound at the stated rate of application. After the spray coating has dried on, the plants are inoculated with an aqueous spore suspension of Sphaerotheca fuliginea. The plants are then placed in a greenhouse at approximately 23° C. and a relative atmospheric humidity of approximately 70%.
The test is evaluated 7 days after the inoculation. 0% means an efficacy which corresponds to that of the untreated control, while an efficacy of 100% means that no disease is observed.
as §2

For the next series, the system named is Botrytis cinerea. Kind of series: Botrytis test (beans)/preventive. The format is in vivo. How it is done: as §1
To test for preventive activity, young plants are sprayed with the preparation of active compound. After the spray coating has dried on, 2 small pieces of agar covered with growth of Botrytis cinerea are placed on each leaf. The inoculated plants are placed in a darkened chamber at 20° C. and a relative atmospheric humidity of 100%.
2 days after the inoculation, the size of the lesions on the leaves is evaluated. 0% means an efficacy which corresponds to that of the untreated control, while an efficacy of 100% means that no disease is observed.
as §2

In the next series the test system is Phytophthora infestans. Kind of series: whole plant or invertebrate. The format is in vivo. The note with it: Phytophthora infestans, 72 h, tomatoes; for pest or weed control at 10 ppm: 10 ppm a.i.; for pest or weed control at 0.01 ppm: 0.01 ppm a.i.; for pest or weed control at 0.0025 ppm: 0.0025 ppm a.i.; for pest or weed control at 0.005 ppm: 0.005 ppm a.i.
The next series deals with Alternaria solani. Put plainly: whole plant or invertebrate. Format: in vivo. The conditions noted are these: for Efficacy in % found: in vivo.
For series [1] the following is noted: pH 2.3.
Procedure: (§3) Measurement of log P values was performed according EEC directive 79/831 Annex V.A8 by HPLC (High Performance Liquid
(§4) Chromatography) on reversed phase columns with the following methods:
(§5) ^[a]Measurement was done at pH 2.3 with 0.1% phosphoric acid and acetonitrile as eluent.
The mark [2] stands for this setting: read-out: Efficacy in % found, Table 2.
The mark [3] stands for this setting: Alternaria solani, 72 h, read-out: Efficacy in % found.
[4] abbreviates: read-out: Efficacy in % found, Table 3.
Setting [5] is: read-out: Efficacy in % found, Table 1.
[6] abbreviates: read-out: Efficacy in % found, Table 4.
Where [7] appears, read: read-out: Efficacy in % found, Table 5.

Procedure for physchem: as §3, §4, §5

In the case of `O=C(Nc1ccccc1-c1ccc(Cl)cc1)c1cccnc1Cl` [2.2, boscalid], the pest or weed control at 12.5 ppm in the series on Venturia inaequalis (Table 10, 12.5 ppm a.i.) was 66%. In addition, in the series with Sphaerotheca fuliginea (Table 13, 25 ppm a.i.), the “Efficacy in % found” value is recorded as 67%.

As to `N#Cc1c(Cl)c(Cl)c(Cl)c(C#N)c1Cl` [5.4, chlorothalonil], the “Efficacy in % found” value in the series with Botrytis cinerea (Table 12, 5 ppm a.i.) is listed as 8%.

As to `O=C1c2ccccc2C(=O)N1SC(Cl)(Cl)Cl` [5.16, folpet], the pest or weed control at 5 ppm with Phytophthora infestans (read-out: Efficacy in % found, Table 2, 5 ppm a.i.) was found to be 3%; in the series on Alternaria solani (setting [3]), 21%. In addition, the pest or weed control at 10 ppm was determined as 3% with Phytophthora infestans (setting [2]) and 43% in the series on Venturia inaequalis (Table 11, 10 ppm a.i.). Besides, the “Efficacy in % found” value in the series on Botrytis cinerea (Table 12, 10 ppm a.i.) is reported as 31%.

With `Cc1cc(C)nc(Nc2ccccc2)n1` [7.7, pyrimethanil], the pest or weed control at 10 ppm in the series on Phytophthora infestans (setting [4]) is 10%. Moreover, the “Efficacy in % found” value in the series with Botrytis cinerea (Table 12, 10 ppm a.i.) is recorded as 15%. Besides, in the series on Alternaria solani (setting [3]), the pest or weed control at 20 ppm was found to be 4%.

On to `C#CCOc1ccccc1C1CC(c2csc(C3CCN(C(=O)Cn4nc(C(F)F)cc4C(F)F)CC3)n2)=NO1` (stereo not drawn) [(I-1), 2-[3,5-bis(difluoromethyl)-1H-pyrazol-1-yl]-1-[4-(4-{5-[2-(prop-2-yn-1-yloxy)phenyl]-4,5-dihydro-1,2-oxazol-3-yl}-1,3-thiazol-2-yl)piperidin-1-yl]ethanone], for which the pest or weed control at 0.01 ppm stood at 0% with Phytophthora infestans (setting [5]), 42% with Phytophthora infestans (setting [2]), 29% in the series with Phytophthora infestans (setting [4]) and 15% in the series on Phytophthora infestans (setting [6]). The pest or weed control at 0.0025 ppm in the series on Phytophthora infestans (setting [2]) was 52%; with Phytophthora infestans (setting [7]) it was 64%. Also, the pest or weed control at 25 ppm with Venturia inaequalis came to 0%. Moreover, the pest or weed control at 100 ppm in the series with Venturia inaequalis (Table 10, 100 ppm a.i.) amounted to 8%; with Venturia inaequalis (Table 11, 100 ppm a.i.) it was 0%; with Alternaria solani (setting [3]), 0%. Besides, the pest or weed control at 50 ppm came out at 0% in the series with Venturia inaequalis and 21% in the series with Alternaria solani (setting [3]). The “Efficacy in % found” value in the series on Sphaerotheca fuliginea (Table 13, 50 ppm a.i.) was 0%; in the series on Botrytis cinerea (Table 12, 25 ppm a.i.) it was 15%; in the series on Botrytis cinerea (Table 12, 50 ppm a.i.), 15%. In addition, the chromatographic logP stood at 3.24 in the series “physchem” (pH 2.7) and 3.34 in “physchem” (pH 7.8).

Consider `C#CCOc1cccc(F)c1C1CC(c2csc(C3CCN(C(=O)Cn4nc(C(F)F)cc4C(F)F)CC3)n2)=NO1` (stereo not drawn) [(I-5), 2-[3,5-bis(difluoromethyl)-1H-pyrazol-1-yl]-1-[4-(4-{5-[2-fluoro-6-(prop-2-yn-1-yloxy)phenyl]-4,5-dihydro-1,2-oxazol-3-yl}-1,3-thiazol-2-yl)piperidin-1-yl]ethanone], for which, in the series with Phytophthora infestans (setting [5]), the pest or weed control at 0.01 ppm is 62%. In addition, in the series on Phytophthora infestans (setting [2]), the pest or weed control at 0.005 ppm was found to be 43%. Besides, the pest or weed control at 50 ppm with Venturia inaequalis came to 0%; with Alternaria solani (setting [3]) it was 15%. Further, the pest or weed control at 100 ppm in the series with Venturia inaequalis (Table 11, 100 ppm a.i.) was 0%. The chromatographic logP in “physchem” (pH 2.7) came out at 3.15; in the series “physchem” (pH 7.8), 3.18. Besides, the “Efficacy in % found” value in the series on Botrytis cinerea (Table 12, 25 ppm a.i.) is reported as 10%; in the series with Botrytis cinerea (Table 12, 100 ppm a.i.), 38%; in the series on Alternaria solani, 29%.

In the case of `C#CCOc1cccc(Cl)c1C1CC(c2csc(C3CCN(C(=O)Cn4nc(C(F)F)cc4C(F)F)CC3)n2)=NO1` (stereo not drawn) [(I-6), 2-[3,5-bis(difluoromethyl)-1H-pyrazol-1-yl]-1-[4-(4-{5-[2-chloro-6-(prop-2-yn-1-yloxy)phenyl]-4,5-dihydro-1,2-oxazol-3-yl}-1,3-thiazol-2-yl)piperidin-1-yl]ethanone], the pest or weed control at 0.005 ppm in the series on Phytophthora infestans (setting [6]) amounted to 35%. Besides, in the series with Phytophthora infestans (setting [7]), the pest or weed control at 0.0025 ppm was determined as 73%. For the same compound, the pest or weed control at 25 ppm is 0% in the series on Venturia inaequalis and 30% in the series with Alternaria solani (setting [3]). Also, the pest or weed control at 100 ppm in the series on Venturia inaequalis (Table 10, 100 ppm a.i.) is 4%; with Venturia inaequalis (Table 11, 100 ppm a.i.) it was 38%; in the series on Alternaria solani (setting [3]), 41%. For the same compound, the pest or weed control at 50 ppm was 13% with Venturia inaequalis and 35% with Alternaria solani (setting [3]). In addition, the results for the chromatographic logP (in series [1]; in the series “physchem” (pH 2.7)) were 3.51 and 3.4, respectively. Also, the “Efficacy in % found” value with Sphaerotheca fuliginea (Table 13, 50 ppm a.i.) turned out to be 0%; in the series with Alternaria solani, 29%.

Compound `CC(C)(C)OC(=O)N1CCC(c2nc(C3=NOC(c4c(F)cc(O)cc4F)C3)cs2)CC1` (stereo not drawn) [tert-butyl 4-{4-[5-(2,6-difluoro-4-hydroxyphenyl)-4,5-dihydro-1,2-oxazol-3-yl]-1,3-thiazol-2-yl}piperidine-1-carboxylate] returned a chromatographic logP in “physchem” (pH 2.7) of 3.24.

Regarding mancozeb [5.23], the “Efficacy in % found” value is recorded as 0% with Botrytis cinerea (Table 12, 5 ppm a.i.) and 0% in the series with Alternaria solani.

For orientation: chromatographic logP means lipophilicity estimated from chromatographic retention. Read a high chromatographic logP as a more lipophilic compound.
